From patent publication US9833497B2, “Human originated EGF domain proteins and use of the same” (CHENGDU SOURCEBIO LIMITED-LIABILITY COMPANY, priority 2013, dated 2017)

Key:
Assay type in all cases: cell-based
Enterobacter cloacae = assay: MIC against Gram-negative bacteria: Enterobacter cloacae
Outline: (§1)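 Broth microdilution, LB medium, final inoculum 5×10^5 CFU/mL from McFarland 0.5 cultures. Recombinant human EGF domain proteins tested in two-fold steps, n=3. MIC: lowest concentration, no growth.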

Citrobacter diversus = assay: MIC against Gram-negative bacteria: Citrobacter diversus
Outline: as §1

Serratia marcescens = assay: MIC against Gram-negative bacteria: Serratia marcescens
Outline: as §1

Moraxella catarrhalis = assay: MIC against Gram-negative bacteria: Moraxella catarrhalis
Outline: as §1

Proteus mirabilis = assay: MIC against Gram-negative bacteria: Proteus mirabilis
Outline: as §1

Aeromonas hydrophila = assay: MIC against Gram-negative bacteria: Aeromonas hydrophila
Outline: as §1

Klebsiella pneumonia = assay: MIC against Gram-negative bacteria: Klebsiella pneumonia
Outline: as §1

Pseudomonas aeruginosa = assay: MIC against Gram-negative bacteria: Pseudomonas aeruginosa
Outline: as §1

E. coli DH5α = assay: Antibacterial activity: MIC and growth curve against E. coli DH5α in 96-well plate; settings: minimal inhibitory concentration against E. coli DH5α; 96-well plate, 5×10^5 CFU/mL, 37° C., judged after 8 h
Outline: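 Log-phase DH5α (OD600 about 0.5, 37° C, 185 rpm in LB) was pelleted, resuspended in fresh LB and seeded at 5×10^5 CFU/mL with recombinant protein at 50, 25 and 12.5 μg/mL (two-fold series), in triplicate. Plates were shaken at 175 rpm, 37° C, and OD600 was read every 30 min. MIC was the lowest concentration with no growth.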

E. coli BL21 = assay: MIC against Gram-negative bacteria: E. coli BL21
Outline: as §1

Proteus vulgaris = assay: MIC against Gram-negative bacteria: Proteus vulgaris
Outline: as §1

[1] = 96-well plate, 5×10^5 CFU/mL, 37° C., 10 h

Substance: PRT964 (NIDDCASNPCTFGVCRDGINRYDCVCQPGFTGPLCN; listed as Homo sapiens)
- MIC (Enterobacter cloacae; E. cloacae, 10 h cultivation at 37° C.): 12.5 µg/mL
- MIC (Citrobacter diversus; C. diversus, 10 h cultivation at 37° C.): 50 µg/mL
- MIC (Serratia marcescens; S. marcescens, 10 h cultivation at 37° C.): 50 µg/mL
- MIC (Moraxella catarrhalis; M. catarrhalis, 10 h cultivation at 37° C.): 25 µg/mL
- MIC (Proteus mirabilis; P. mirabilis, 10 h cultivation at 37° C.): 25 µg/mL
- MIC (Aeromonas hydrophila; A. hydrophila, 10 h cultivation at 37° C.): 25 µg/mL
- MIC (Klebsiella pneumonia; K. pneumonia, 10 h cultivation at 37° C.): 25 µg/mL
- MIC (Pseudomonas aeruginosa; P. aeruginosa, 10 h cultivation at 37° C.): 50 µg/mL
- MIC (E. coli DH5α): 12.5 µg/mL
- MIC (E. coli BL21; E. coli BL21, 10 h cultivation at 37° C.): 25 µg/mL
- MIC (Proteus vulgaris; P. vulgaris, 10 h cultivation at 37° C.): 12.5 µg/mL

Substance: PRT164 (YKDPCANVSCLNGATCDSDGLNGTCICAPGFTGEECD; listed as Homo sapiens)
- MIC (μg/mL) E. cloacae (Enterobacter cloacae; E. cloacae, 10 h cultivation at 37° C., 5×10^5 CFU/mL): 25 µg/mL
- MIC (μg/mL) C. diversus (Citrobacter diversus; C. diversus, 10 h cultivation at 37° C., 5×10^5 CFU/mL): 12.5 µg/mL
- MIC (μg/mL) S. marcescens (Serratia marcescens; S. marcescens, 10 h cultivation at 37° C., 5×10^5 CFU/mL): 12.5 µg/mL
- MIC (μg/mL) M. catarrhalis (Moraxella catarrhalis; M. catarrhalis, 10 h cultivation at 37° C., 5×10^5 CFU/mL): 50 µg/mL
- MIC (μg/mL) P. mirabilis (Proteus mirabilis; P. mirabilis, 10 h cultivation at 37° C., 5×10^5 CFU/mL): 12.5 µg/mL
- MIC (μg/mL) A. hydrophila (Aeromonas hydrophila; A. hydrophila, 10 h cultivation at 37° C., 5×10^5 CFU/mL): 50 µg/mL
- MIC (μg/mL) K. pneumonia (Klebsiella pneumonia; K. pneumonia, 10 h cultivation at 37° C., 5×10^5 CFU/mL): 12.5 µg/mL
- MIC (μg/mL) P. aeruginosa (Pseudomonas aeruginosa; P. aeruginosa, 10 h cultivation at 37° C., 5×10^5 CFU/mL): 25 µg/mL
- MIC (E. coli DH5α): 25 µg/mL
- MIC (μg/mL) E. coli BL21 (E. coli BL21; E. coli BL21, 10 h cultivation at 37° C., 5×10^5 CFU/mL): 50 µg/mL
- MIC (μg/mL) P. vulgaris (Proteus vulgaris; P. vulgaris, 10 h cultivation at 37° C., 5×10^5 CFU/mL): 50 µg/mL

Substance: PRT538 (CPCPLPHLANFAESCYRKNGAVRCICNENYAGPNCERCAPGYYGNPLLIGSTCKK; listed as Homo sapiens)
- MIC against E. cloacae (Enterobacter cloacae; [1]): 25 µg/mL
- MIC against C. diversus (Citrobacter diversus; [1]): 25 µg/mL
- MIC against S. marcescens (Serratia marcescens; [1]): 50 µg/mL
- MIC against M. catarrhalis (Moraxella catarrhalis; [1]): 12.5 µg/mL
- MIC against P. mirabilis (Proteus mirabilis; [1]): 12.5 µg/mL
- MIC against A. hydrophila (Aeromonas hydrophila; [1]): 12.5 µg/mL
- MIC against K. pneumonia (Klebsiella pneumonia; [1]): 12.5 µg/mL
- MIC against P. aeruginosa (Pseudomonas aeruginosa; [1]): 25 µg/mL
- MIC (E. coli DH5α): 25 µg/mL
- MIC against E. coli BL21 (E. coli BL21; [1]): 12.5 µg/mL
- MIC against P. vulgaris (Proteus vulgaris; [1]): 12.5 µg/mL

Substance: PRT1453 (DVDECAEPGLSHCHALATCVNVVGSYLCVCPAGYRGDGWHCE; listed as Homo sapiens)
- MIC against E. cloacae (Enterobacter cloacae; Enterobacter cloacae, 5×10^5 CFU/mL, 10 h cultivation at 37° C.): 25 µg/mL
- MIC against C. diversus (Citrobacter diversus; Citrobacter diversus, 5×10^5 CFU/mL, 10 h cultivation at 37° C.): 25 µg/mL
- MIC against S. marcescens (Serratia marcescens; Serratia marcescens, 5×10^5 CFU/mL, 10 h cultivation at 37° C.): 12.5 µg/mL
- MIC against M. catarrhalis (Moraxella catarrhalis; Moraxella catarrhalis, 5×10^5 CFU/mL, 10 h cultivation at 37° C.): 50 µg/mL
- MIC against P. mirabilis (Proteus mirabilis; Proteus mirabilis, 5×10^5 CFU/mL, 10 h cultivation at 37° C.): 12.5 µg/mL
- MIC against A. hydrophila (Aeromonas hydrophila; Aeromonas hydrophila, 5×10^5 CFU/mL, 10 h cultivation at 37° C.): 12.5 µg/mL
- MIC against K. pneumonia (Klebsiella pneumonia; Klebsiella pneumonia, 5×10^5 CFU/mL, 10 h cultivation at 37° C.): 50 µg/mL
- MIC against P. aeruginosa (Pseudomonas aeruginosa; Pseudomonas aeruginosa, 5×10^5 CFU/mL, 10 h cultivation at 37° C.): 25 µg/mL
- MIC (E. coli DH5α): 25 µg/mL
- MIC against E. coli BL21 (E. coli BL21; E. coli BL21, 5×10^5 CFU/mL, 10 h cultivation at 37° C.): 12.5 µg/mL
- MIC against P. vulgaris (Proteus vulgaris; Proteus vulgaris, 5×10^5 CFU/mL, 10 h cultivation at 37° C.): 25 µg/mL

Substance: PRT645 (EINECTVNPDICGAGHCINLPVRYTCICYEGYRFSEQQ; listed as Homo sapiens)
- MIC E. cloacae (Enterobacter cloacae; [1]): 50 µg/mL
- MIC C. diversus (Citrobacter diversus; [1]): 12.5 µg/mL
- MIC S. marcescens (Serratia marcescens; [1]): 12.5 µg/mL
- MIC M. catarrhalis (Moraxella catarrhalis; [1]): 50 µg/mL
- MIC P. mirabilis (Proteus mirabilis; [1]): 12.5 µg/mL
- MIC A. hydrophila (Aeromonas hydrophila; [1]): 25 µg/mL
- MIC K. pneumonia (Klebsiella pneumonia; [1]): 25 µg/mL
- MIC P. aeruginosa (Pseudomonas aeruginosa; [1]): 12.5 µg/mL
- MIC (E. coli DH5α): 50 µg/mL
- MIC E. coli BL21 (E. coli BL21; [1]): 25 µg/mL
- MIC P. vulgaris (Proteus vulgaris; [1]): 50 µg/mL

Substance: PRT1268 (CAVNNGGCDRTCKDTSTGVHCSCPVGFTLQLDGKTC; listed as Homo sapiens)
- MIC against E. cloacae (Enterobacter cloacae; Enterobacter cloacae, 96-well plate, 5×10^5 CFU/mL, 37° C., 10 h): 25 µg/mL
- MIC against C. diversus (Citrobacter diversus; Citrobacter diversus, 96-well plate, 5×10^5 CFU/mL, 37° C., 10 h): 12.5 µg/mL
- MIC against S. marcescens (Serratia marcescens; Serratia marcescens, 96-well plate, 5×10^5 CFU/mL, 37° C., 10 h): 50 µg/mL
- MIC against M. catarrhalis (Moraxella catarrhalis; Moraxella catarrhalis, 96-well plate, 5×10^5 CFU/mL, 37° C., 10 h): 50 µg/mL
- MIC against P. mirabilis (Proteus mirabilis; Proteus mirabilis, 96-well plate, 5×10^5 CFU/mL, 37° C., 10 h): 12.5 µg/mL
- MIC against A. hydrophila (Aeromonas hydrophila; Aeromonas hydrophila, 96-well plate, 5×10^5 CFU/mL, 37° C., 10 h): 50 µg/mL
- MIC against K. pneumonia (Klebsiella pneumonia; Klebsiella pneumonia, 96-well plate, 5×10^5 CFU/mL, 37° C., 10 h): 12.5 µg/mL
- MIC against P. aeruginosa (Pseudomonas aeruginosa; Pseudomonas aeruginosa, 96-well plate, 5×10^5 CFU/mL, 37° C., 10 h): 50 µg/mL
- MIC (E. coli DH5α): 50 µg/mL
- MIC against E. coli BL21 (E. coli BL21; E. coli BL21, 96-well plate, 5×10^5 CFU/mL, 37° C., 10 h): 12.5 µg/mL
- MIC against P. vulgaris (Proteus vulgaris; Proteus vulgaris, 96-well plate, 5×10^5 CFU/mL, 37° C., 10 h): 25 µg/mL
